Laboratory results published in patent US12570638B2, “Fused imidazole derivatives as AHR antagonists” (Sail Biomedicines, Inc., priority 2020, dated 2026).

Assay: Hepatocyte Stability Assay, rat
Assay type: in vitro ADME
Details: cryopreserved hepatocytes, read-out: Rat hepatocyte clearance
Protocol: Preparation of working solutions: 10 mM stock solutions of test compound and positive control were prepared in DMSO. In separate conical tubes, the 10 mM solution of test compound and the positive control were diluted to 100 μM by combining 198 μL of 50% acetonitrile/50% water and 2 μL of 10 mM stock.
Preparation of Hepatocytes: Incubation medium (William's E Medium supplemented with GlutaMAX) and hepatocyte thawing medium were placed in a 37° C. water bath and allowed warming for at least 15 minutes prior to use. A vial of cryopreserved hepatocytes was transferred from storage, ensuring that vials remained at cryogenic temperatures until thawing process ensued. Cells were thawed by placing the vial in a 37° C. water bath and gently shaking the vials for 2 minutes. […] Using an AO/PI Staining, cells were counted and the viable cell density was determined. Cells with poor viability (<75% viability) were determined to be not acceptable for use. […]
Data Analysis: All calculations were carried out using Microsoft Excel. Peak areas were determined from extracted ion chromatograms. In vitro half-life (t1/2) of parent compound was determined by regression analysis of the percent parent disappearance vs. time curve.
The in vitro half-life (in vitro t1/2) was determined from the slope value: in vitro t1/2=0.693/k […]

- CLint scaled at 1 μM: < 20 mL/min/kg
SMILES: Cn1ncnc1C(=O)Nc1ccc2nc(-c3ccccc3C(F)(F)F)[nH]c2c1 [Compound H, 1-methyl-N-(2-(2-(trifluoromethyl)phenyl)-1H-benzo[d]imidazol-6-yl)-1H-1,2,4-triazole-5-carboxamide]
